Target: Elastase (Pseudomonas aeruginosa (strain ATCC 15692 / DSM 22644 / CIP 104116 / JCM 14847 / LMG 12228 / 1C / PRS 101 / PAO1), UniProt P14756)
Experiment: Antagonist activity at Pseudomonas aeruginosa LasB using Abz-Ala-Gly-Leu-Ala-p-Nitro-Benzyl-Amide as substrate incubated for 30 mins prior to substrate addition by FRET assay

Sequence of Elastase (P14756 whole entry): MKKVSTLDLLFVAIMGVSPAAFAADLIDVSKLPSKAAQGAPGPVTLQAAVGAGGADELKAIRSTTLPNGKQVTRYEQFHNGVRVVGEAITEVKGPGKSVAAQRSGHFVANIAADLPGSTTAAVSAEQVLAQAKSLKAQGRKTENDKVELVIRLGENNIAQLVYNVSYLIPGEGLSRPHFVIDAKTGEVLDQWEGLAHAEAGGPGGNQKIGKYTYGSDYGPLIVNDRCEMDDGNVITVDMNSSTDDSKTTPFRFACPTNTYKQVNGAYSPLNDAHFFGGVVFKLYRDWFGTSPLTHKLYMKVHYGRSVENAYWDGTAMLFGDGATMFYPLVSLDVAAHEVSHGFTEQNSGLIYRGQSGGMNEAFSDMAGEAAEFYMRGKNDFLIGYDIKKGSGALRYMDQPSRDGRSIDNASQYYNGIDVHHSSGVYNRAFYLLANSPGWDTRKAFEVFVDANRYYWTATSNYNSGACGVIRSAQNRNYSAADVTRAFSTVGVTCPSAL

Structure (SMILES)	IC50
Cc1c(O)c(=S)ccn1C	80.6 µM
CCc1c(O)c(=S)ccn1CC	392 µM
